The values below come from US12629347B2, “Compounds and dosage regimen for use in the prevention or treatment of chronic inflammatory and/or autoimmune diseases” (Immunic AG, priority 2017, dated 2026).

A short description of data set [1]: Phase I SAD study (P1-IMU-838-SAD): plasma concentration after single dose. Conditions: human, oral, read-out: maximum plasma concentrations (cmax). It counts as in vivo.
Data set [2] can be described thus: Phase I SAD study: uric acid in 24 h collected urine. In kind it is in vivo, human. Conditions: for Uric acid, Pre dose (−24 h to 0): 24 h urine; for Increase of mean uric acid levels: post dose vs pre dose. How it is done: (§1) During the IMU-838 (vidofludimus-calcium) phase I SAD study (Immunic study number P1-IMU-838-SAD), urine was collected from all volunteers and tested with respect to the amount of clinical relevant anions, including urate and oxalate. In addition, formation of anion crystals in the urine was measured. In this study, IMU-838 was tested as a single dose applied to male healthy volunteers. Five different dose regimens were tested which covered four different doses of IMU-838: 10 mg, 20 mg, 30 mg and 40 mg of IMU-838 in fastened patients, which means no food intake 10 hours prior to the treatment and two hours after dose application. In addition, one dose group received 10 mg of IMU-838 in fed state which means that the 10 mg dose was applied after a high-fat breakfast. Each group consisted of six healthy volunteers, except for the 40 mg dose group with only five volunteers.
The pre-dose value was derived from urine collected 24 hours before application of IMU-838 tablets. The post dose value was obtained by collecting 24 hours urine starting 4 hours after intake of IMU-838.

A short description of data set [3]: Phase I SAD study: RBC in urine / hematuria. In kind it is in vivo, human. How it is done: as §1
Treatment of humans with IMU-838 leads to dose dependent increase of urate excretion through the urine and thus to formation of urate (micro)crystals.

The nature of data set [4]: Phase I MAD trial (P1-IMU-838-MAD): uric acid in 24 h urine, 14 days once daily without predosing. In kind it is in vivo, human. The method, then: Each group consists of 16 patients with 12 individuals receiving active drug IMU-838 (either 30 or 40 mg per day) and 4 patients receiving placebo.
In a randomized, placebo controlled double blind clinical Phase I MAD trial (Immunic study number P1-IMU-838-MAD), IMU-838 was applied to healthy volunteers for 14 days in order to test the effects of IMU-838 on safety and biomarkers for repeated once daily doses over 14 days. In the first part of this study, 12 individuals were treated with 30 mg of IMU-838, 12 individuals were treated with 40 mg of IMU-838 and 8 individuals received placebo (4 individuals in each group). For all 32 individuals, urate levels in the urine was quantified in three periods of 24 hour urine collection. The first collection was at pre-dose (day 0). The second urine collection started four hours after intake of the first dose (day 1, 4 hours to 28 hours). The third collection of urine was performed on the last day of the 14 day treatment cycle (day 14, 4 hours to 28 hours). The amounts of uric acid at those timepoints is depicted in FIG. 2a.

Data set [5] can be described thus: Three week phase I trial with dose-in phase (25 mg then 50 mg): urate in 24 h urine. In kind it is in vivo, human. The settings on record: all 20 subjects incl. placebo. How it is done: 8 individuals were treated with 25 mg for 7 days, followed by 14 day treatment with a dose of 50 mg once daily. Another 8 volunteers were treated with placebo (dose 1=0 mg) for 7 days followed by treatment of 50 mg IMU-838. 4 volunteers received placebo for the whole time.
Based on the observations on a) dose dependent effect of IMU-838 on urate levels in the urine and formation of small crystals (example 1) and b) the time course and dose dependence of urate level changes in single volunteers (example 2) a new therapeutic treatment scheme was invented. In this example a treatment scheme was applied to a three week clinical phase I trial consisting of two different doses “dose 1” of 25 mg daily dose and “dose 2” of 50 mg daily dose. 8 subjects received a lower dose 1 for 7 days followed by the higher (double) dose 2 for further 14 days, whereas another 8 subjects received placebo for 7 days then followed by treatment with the 50 mg high dose (dose 2). 4 subjects received placebo during the foll three week period. During this study urine was collected at four different timepoints (pre-dose, day 1, day 7, day 14) and analyzed for urate/uric acid levels.

Data set [6] is described as follows: Clinical study comparing treatment with and without pre-treatment phase: uric acid excreted in urine. The settings on record: for Change in Median uric acid excreted in urine: Day 0 (first day of 50 mg dose), n 8. It counts as in vivo, human. The source says:
A double-blind clinical study, Placebo controlled, Ascending Dose has been conducted. This study has been reported (Study Number P1-IMU-838-MAD).
Uric acid excretion in urine could be however modified with a pre-treatment period.

Data set [7] is described as follows: Clinical observations with vidofludimus: blood uric acid, urine RBC, hematuria. It counts as in vivo, human. The method, then:
A novel class of compounds with an inhibitory effect on DHODH, in particular human DHODH, was found and described in EP 2 093 214 A1. Vidofludimus (CAS 717824-30-1) is the free acid of a compound according to formula (I) and is tested in clinical trials in human subjects. […] Higher dose means e.g. doses higher than […] once daily application of vidofludimus in humans. However, doses of compounds of formula (I), e.g. higher than 200 μmol once daily application, sometimes lead to undesirable side effects such as an increased risk of increased red blood cell count (RBC) in the urine (hematuria).
At high vidofludimus doses (i.e. ≥70 mg/day or single doses of ≥210 mg) a decrease in blood uric acid levels and an increase in urine red blood cell count were observed, in very rare cases, presenting as symptomatic hematuria during the first 7 days of treatment. Laboratory findings were consistent with post-renal events and de novo precipitates in the urinary tract.
A side effect that may also be termed adverse effect is a harmful and undesired effect resulting from medication during its use in the prevention and/or treatment of a patient with the inventive compound (I).

Setting [8] is: high doses, ≥70 mg/day or single doses of ≥210 mg.

SMILES strings stand for the structures. Like-named read-outs stand apart in the source and are kept apart here. Marks after values point to notes of the source that are not given here.

Regarding `COc1cccc(-c2ccc(NC(=O)C3=C(C(=O)O)CCC3)c(F)c2)c1` [IMU-838], the Cmax in data set [1] (single dose 10 mg IMU-838, fasted male healthy volunteers) was 1580 ng/mL; in data set [1] (male, single dose 40 mg IMU-838, fasted), 7860 ng/mL. Further, the “Uric acid, Pre dose (−24 h to 0)” value is given as 520 mg/24 h in data set [2] (10 mg fasted group, N = 6, baseline before dosing) and 489^a mg/24 h in data set [2] (40 mg fasted group, N = 4, baseline before dosing). Besides, the “Uric acid, Post dose (4 to 28 h)” value came to 637 mg/24 h in data set [2] (single dose 10 mg fasted, N = 6, 24 h urine) and 734 mg/24 h in data set [2] (single dose 40 mg fasted, N = 5, 24 h urine). Further, the “Increase of mean uric acid levels” value in data set [2] (single dose 10 mg fasted) is recorded as 117 mg/24 h; in data set [2] (single dose 40 mg fasted) it was 245 mg/24 h. Further, the “dose limiting side effects like hematuria” value in data set [3] (doses up to 40 mg of IMU-838) is listed as “no dose limiting side effects like hematuria occurred”. In addition, the “RBC (red blood cell count) in urine” value in data set [3] (single doses 10 to 40 mg) was “not leading to increase of RBC”. For the same compound, the “increase of uric acid compared with pre-treatment” value in data set [4] (30 mg and 40 mg groups, after the full 14 days treatment) is given as “around 30%”. Besides, the “amount of uric acid in 24 hour urine” value in data set [4] (30 mg group, pre-dose (day 0) baseline) is listed as 605.9 mg; in data set [4] (30 mg once daily, day 14) it was 686.2 mg; in data set [4] (40 mg group, pre-dose (day 0) baseline), 541.4 mg; in data set [4] (40 mg once daily, day 14) it was 699.3 mg; in data set [4] (40 mg once daily, first day (4-28 hours after intake)) it was 620.3 mg. For the same compound, the “increase of uric acid in urine” value in data set [4] (30 mg once daily, after 14 days vs pre-dose) amounted to 29%; in data set [4] (40 mg once daily, first day (4-28 hours) vs pre-dose), 15.2%. In addition, the “increase of uric acid in urine at day one” value in data set [4] (30 mg once daily, day 1 (4 to 28 hours)) is “no increase”. The “mean 24 hours urinary urate level” value is reported as 789.5 mg in data set [5] (after 1 day of treatment (4-28 hours)), 815.9 mg in data set [5] (after three weeks (day 21)), 789.7 mg in data set [5] (first day of dose 2 50 mg (day 7 of the full trial)) and 684.1 mg in data set [5] (pre-dose baseline). Moreover, the “mean increase in 24 hours urinary urate levels” value in data set [5] (after 1 day of treatment (4-28 hours), dose 1 25 mg) stood at 15%. In addition, the “overall increase of mean urinary urate level” value in data set [5] (day 21 vs first day of dose 2) is 4%. Moreover, in data set [6] (P1-IMU-838-MAD dose groups), the “urinary excretion of uric acid after treatment initiation” value is reported as “increased in all but the 30 mg group”. Further, the “Change in Median uric acid excreted in urine” value in data set [6] (Placebo pre-treatment then 50 mg) came out at 86.5 mg/24 h; in data set [6] (Pre-dosing 25 mg for 6 days then 50 mg), 49.5 mg/24 h.
Regarding `COc1cccc(-c2ccc(NC(=O)C3=C(C(=O)O)CCC3)c(F)c2)c1` [vidofludimus], the symptomatic hematuria entry in data set [7] (daily doses of 35 mg) was “no cases of symptomatic hematuria”. Moreover, in data set [7] (setting [8]), the “blood uric acid levels” value is “decrease” and the “urine red blood cell count” value is on record as “increase”.
